Results as given in EP1900728A1 (Genecare Research Institute Co., Ltd, priority 2005, dated 2006).
Where two headings read alike, the source gives them in different places.

Experiments:
[1] = biological target: T1, IκBα ubiquitinating enzyme (SCF complex: ROC1, Cullin1, Skp1, His-TrCP1; with E1, UbcH5b) (Homo sapiens, UniProt P62877+P63208+Q13616+Q9Y297); test: Measurement of ubiquitinating enzyme activity (IκBα ubiquitination, time-resolved fluorescence with Eu(K)-labeled ubiquitin and XL665-labeled anti-GST antibody); type: biochemical
T1 construct: His (polyhistidine); made in house; host or cells: insect cells (baculovirus) for the SCF complex and His-E1; E. coli for His-UBCH5b
How it was run: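 Human SCF complex with E1 and UbcH5b ubiquitinated GST-IκBα pre-phosphorylated by IKKβ (2 mM ATP, pH 7.4, 1 h, RT), with Eu(K)-ubiquitin, 30 min RT. Stopped with EDTA, XL665 anti-GST added for 2 h; 665/620 nm TR-FRET ratio. % inhibition versus no-compound control and no-SCF blank gave IC50.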

[2] = system: ICAM-1 expression in HT-29 cells; test: Measurement of ICAM-1 expressing activity (TNFα-induced ICAM-1 expression, cell ELISA); type: cell-based; conditions: Homo sapiens, Table 6, cell activity inhibition test by method (3), read-out: EVALUATION (IC50 class, inhibition of cell activity)
Protocol: Method 2: Measurement of ICAM-1 expressing activity
2.0 x 10^4 HT-29 cells (ATCC) were plated onto a 96-well plate, and the cells were cultured for 48 hours using a McCoy' 5A medium (GIBCO) containing 10% inactivated fetal calf serum. The culture medium was removed, a culture medium containing a compound to be evaluated (final DMSO concentration of 0.5%) was added, and this was incubated at 37°C for 30 minutes. Thirty ng/mL of human TNFα (GIBCO) was added, and this was incubated at 37°C for 4 hours. After washing once with a washing solution (PBS containing 0.05% Tween 20), ice-cooled methanol was added, and this was left on ice for 10 minutes and then fixed. After removing methanol, PBS containing 1% BSA was added, and blocking was performed by letting this stand at room temperature for 30 minutes. Anti-ICAM-1 antibody (Santa Cruz Biotechnology) was added, and this was left to stand at room temperature for 1 hour. After washing with the washing solution, POD-labeled secondary antibody was added, and this was left to stand at room temperature for 30 minutes. This was washed, 100 µL of 100 mM citric acid buffer (pH4.2) containing 1 mM TMBZ and 0.03% H2O2 was added, and this was reacted at room temperature for 15 minutes. The reaction was terminated with 100 µL of 2 N H2SO4, and the absorbance at 450 nm was measured using ARVO-HTS (Perkin Elmer).
When cells are stimulated with TNFα, IκBα is degraded after ubiquitination resulting in the activation of NFκB and the promotion of the expression of adhesion factor ICAM-1. Therefore, the suppression of ICAM-1 expression described above serves as an indicator to determine the effectiveness of the compound in the cells.

[3] = enzyme activity inhibition test, method (1), Table 5, read-out: EVALUATION

T1 sequence (Q9Y297 whole entry): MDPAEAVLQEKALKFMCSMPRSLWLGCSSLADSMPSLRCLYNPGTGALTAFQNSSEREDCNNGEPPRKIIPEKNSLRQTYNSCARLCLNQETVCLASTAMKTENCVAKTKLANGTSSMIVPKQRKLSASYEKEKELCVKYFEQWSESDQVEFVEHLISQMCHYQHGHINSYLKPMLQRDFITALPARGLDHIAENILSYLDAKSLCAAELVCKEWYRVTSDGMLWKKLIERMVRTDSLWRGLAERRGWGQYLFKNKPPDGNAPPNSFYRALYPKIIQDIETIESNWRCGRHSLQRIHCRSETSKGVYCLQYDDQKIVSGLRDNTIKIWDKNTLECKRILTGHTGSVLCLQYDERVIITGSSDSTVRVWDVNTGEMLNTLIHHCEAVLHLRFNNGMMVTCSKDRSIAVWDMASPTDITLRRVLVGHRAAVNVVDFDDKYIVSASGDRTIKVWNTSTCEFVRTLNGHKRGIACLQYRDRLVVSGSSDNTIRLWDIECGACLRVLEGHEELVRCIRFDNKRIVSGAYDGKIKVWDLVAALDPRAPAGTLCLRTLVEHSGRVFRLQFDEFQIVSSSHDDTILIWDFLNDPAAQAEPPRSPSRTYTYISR
T1 sequence (Q13616 whole entry): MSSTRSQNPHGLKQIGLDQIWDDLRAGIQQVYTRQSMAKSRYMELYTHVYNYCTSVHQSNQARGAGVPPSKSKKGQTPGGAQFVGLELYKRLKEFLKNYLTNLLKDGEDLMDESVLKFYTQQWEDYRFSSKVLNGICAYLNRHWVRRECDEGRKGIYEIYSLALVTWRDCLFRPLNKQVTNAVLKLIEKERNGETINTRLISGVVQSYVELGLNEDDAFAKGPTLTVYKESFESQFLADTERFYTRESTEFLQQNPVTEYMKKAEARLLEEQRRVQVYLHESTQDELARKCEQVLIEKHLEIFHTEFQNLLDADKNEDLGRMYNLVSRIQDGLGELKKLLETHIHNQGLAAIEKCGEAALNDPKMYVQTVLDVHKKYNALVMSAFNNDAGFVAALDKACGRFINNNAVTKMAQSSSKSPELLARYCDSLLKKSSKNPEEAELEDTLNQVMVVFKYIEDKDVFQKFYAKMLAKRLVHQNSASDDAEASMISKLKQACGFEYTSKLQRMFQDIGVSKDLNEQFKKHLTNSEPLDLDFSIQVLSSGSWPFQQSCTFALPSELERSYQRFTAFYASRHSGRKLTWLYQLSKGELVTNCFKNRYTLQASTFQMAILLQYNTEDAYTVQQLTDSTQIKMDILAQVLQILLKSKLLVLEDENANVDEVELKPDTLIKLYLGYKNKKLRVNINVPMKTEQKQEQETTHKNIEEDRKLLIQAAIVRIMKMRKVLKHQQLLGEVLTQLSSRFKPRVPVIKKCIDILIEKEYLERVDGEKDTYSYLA
T1 sequence (P63208 whole entry): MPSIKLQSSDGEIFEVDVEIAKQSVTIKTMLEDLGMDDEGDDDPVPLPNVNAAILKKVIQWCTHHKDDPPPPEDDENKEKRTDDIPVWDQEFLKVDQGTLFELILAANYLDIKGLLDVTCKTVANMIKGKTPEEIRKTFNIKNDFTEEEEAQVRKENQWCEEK
T1 sequence (P62877 whole entry): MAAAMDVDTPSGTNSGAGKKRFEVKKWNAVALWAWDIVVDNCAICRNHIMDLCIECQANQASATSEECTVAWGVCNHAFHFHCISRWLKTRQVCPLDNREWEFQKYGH

Row | Structure (SMILES) | IC50 [1, 3] [µM] | IC50 [2] [µM] | IC50 [1] [µM]
1 | CC1=NN(c2ccc(S(N)(=O)=O)cc2)C(=O)/C1=C\c1ccc2ccccc2c1 [Compound 116] | 10 to 20 | 10 to 20 | 
2 | CC1=NN(c2ccc(C(=O)N3CCC(CO)CC3)cc2)C(=O)/C1=C\c1ccc2c(c1)OCCO2 [Compound 387] | 10 to 20 | < 40 | 
3 | COc1cc(C=C2C(=O)N(c3cccc4ccccc34)N=C2C)ccc1O [Compound 195] |  | 10 to 20 | < 10
4 | CC1=NN(c2ccc(S(N)(=O)=O)cc2)C(=O)/C1=C\c1ccc2[nH]ccc2c1 [Compound 133] | < 10 | < 40 | 
5 | CC1=NN(c2ccc(C(=O)O)cc2)C(=O)C1=Cc1ccc2[nH]ccc2c1 [Compound 349] |  | < 40 | < 10
6 | CC(C)=CC(=O)Nc1ccc(C=C2C(=O)N(c3ccc(S(N)(=O)=O)cc3)N=C2C)cc1 [Compound 232] |  | < 40 | 10 to 20
7 | O=C(O)c1ccc(N2N=C(c3ccoc3)/C(=C/c3nccs3)C2=O)cc1 [Compound 249] | 10 to 20 | < 40 | 
8 | COc1ccc(C(=O)Nc2ccc(C=C3C(=O)N(c4ccc(S(N)(=O)=O)cc4)N=C3C)cc2)cc1 [Compound 229] |  | 10 to 20 | < 10
9 | COCC1=NN(c2ccccc2)C(=O)/C1=C\c1ccc(-c2ccccc2F)o1 [Compound 6] | 10 to 20 | < 40 | 
10 | CC1=NN(c2ccc(S(N)(=O)=O)cc2)C(=O)/C1=C\c1ccc(F)cc1 [Compound 118] | 10 to 20 | 10 to 20 | 
11 | COc1cc(/C=C2\C(=O)N(c3ccc(C(=O)O)cc3)N=C2C)ccc1OCC(=O)OC(C)(C)C [Compound 346] | < 10 | 10 to 20 | 
12 | COC(=O)c1ccc(COc2ccc(C=C3C(=O)N(c4ccc(C(=O)O)cc4)N=C3C)cc2OC)cc1 [Compound 347] |  | 10 to 20 | < 10
13 | CCOC(=O)c1ccc(COc2ccc(/C=C3\C(=O)N(c4ccc(C(=O)O)cc4)N=C3C)cc2OC)o1 [Compound 392] | < 10 | 10 to 20 | 
14 | CC1=NN(c2ccccc2)C(=O)C1=Cc1ccc(Oc2ccccc2)cc1 [Compound 212] |  | 10 to 20 | 10 to 20
15 | CC1=NN(c2ccc(S(N)(=O)=O)cc2)C(=O)/C1=C\c1ccccc1OS(=O)(=O)c1ccc(C)cc1 [Compound 220] | 10 to 20 | < 10 | 
16 | CCOC(=O)c1ccc(COc2ccc(/C=C3\C(=O)N(c4ccc(S(N)(=O)=O)cc4)N=C3C)cc2OC)o1 [Compound 154] | < 10 | < 10 | 
17 | COCC1=NN(c2ccc(C(=O)O)cc2)C(=O)/C1=C\c1nccs1 [Compound 237] | 10 to 20 | < 40 | 
18 | O=C1/C(=C\c2ccc3ccccc3c2)C(c2ccoc2)=NN1c1ccccc1 [Compound 12] | < 10 | < 40 | 

Row | Structure (SMILES) | IC50 [1, 3] [µM] | IC50 [2] [µM] | IC50 [1] [µM]
19 | O=C(O)c1ccc(N2N=C(c3ccncc3)/C(=C/c3ccc(CO)o3)C2=O)cc1 [Compound 334] | < 10 | < 40 | 
20 | CCCCC1=NN(c2ccc(C(=O)O)cc2)C(=O)C1=Cc1ccc2c(c1)OCO2 [Compound 480] |  | 10 to 20 | < 10
21 | CC1=NN(c2cccc(C(=O)O)c2)C(=O)C1=Cc1cc2ccccc2o1 [Compound 428] |  | < 40 | 10 to 20
22 | Cn1cc(-c2ccc(/C=C3\C(=O)N(Cc4cccc(O)c4)N=C3c3ccoc3)o2)cn1 [Compound 188] | 10 to 20 | < 40 | 
23 | CC1=NN(c2ccc(S(N)(=O)=O)cc2)C(=O)C1=Cc1ccc(NC(=O)c2ccc3ccccc3c2)cc1 [Compound 227] |  | 10 to 20 | < 10
24 | CCCNC(=O)COc1ccc(C=C2C(=O)N(c3ccc(S(N)(=O)=O)cc3)N=C2C)cc1 [Compound 211] |  | < 40 | 10 to 20
25 | COc1cc(/C=C2\C(=O)N(c3ccccn3)N=C2C)ccc1O [Compound 129] | < 40 | < 10 | 
26 | CC1=NN(c2cccc(C(=O)N3CCCC(C(=O)O)C3)c2)C(=O)/C1=C\c1ccc2[nH]ccc2c1 (stereo not drawn) [Compound 376] | < 10 | < 40 | 
27 | COc1cc(/C=C2\C(=O)N(Cc3cccc(O)c3)N=C2C)ccc1O [Compound 128] | 10 to 20 | < 10 | 
28 | COc1cc(/C=C2\C(=O)N(c3ccc(C(=O)O)cc3)N=C2C)ccc1OCC1CC1 [Compound 390] | < 10 | 10 to 20 | 
29 | CC1=NN(c2ccc(S(N)(=O)=O)cc2)C(=O)/C1=C\c1ccc(OCC(N)=O)cc1 [Compound 208] | < 10 | < 40 | 
30 | COc1cc(C=C2C(=O)N(c3ccc(C(=O)O)cc3)N=C2c2ccc(F)cc2)ccc1OCc1ccccc1 [Compound 326] |  | < 40 | < 10
31 | CC1=NN(c2cccc(S(N)(=O)=O)c2)C(=O)/C1=C\c1ccc2[nH]ccc2c1 [Compound 134] | < 10 | < 40 | 
32 | COc1cc(/C=C2\C(=O)N(c3ccc(C(=O)O)cc3)N=C2C)ccc1OCc1c(C)noc1C [Compound 391] | < 10 | 10 to 20 | 
33 | O=C1/C(=C\c2ccc3ccccc3c2)C(C2CC2)=NN1c1ccccc1 [Compound 70] | 10 to 20 | < 40 | 
34 | CC1=NN(c2ccc(C(=O)O)cc2)C(=O)/C1=C\c1ccc2c(ccn2Cc2csc(C)n2)c1 [Compound 500] | < 10 | < 40 | 
35 | CCOC(=O)COc1ccc(C=C2C(=O)N(c3ccc(S(N)(=O)=O)cc3)N=C2C)cc1 [Compound 215] |  | 10 to 20 | 10 to 20

More lines, main results first:

Row | IC50 [1, 3] [µM] | IC50 [2] [µM] | Structure (SMILES) | IC50 [1] [µM]
36 | < 10 | < 40 | CC1=NN(c2cccc(C(=O)N3CCN(c4ccc(O)cc4)CC3)c2)C(=O)/C1=C\c1ccc2[nH]ccc2c1 [Compound 375] | 
37 | < 10 | < 10 | CCCCC1=NN(c2ccc(C(=O)O)cc2)C(=O)/C1=C\c1ccc2c(c1)OCCO2 [Compound 303] | 
38 | < 10 | 10 to 20 | CC1=NN(c2ccc(C(=O)O)cc2)C(=O)/C1=C\c1ccc(N2CCN(c3ccc(F)cc3)CC2)cc1 [Compound 448] | 
39 | < 10 | < 10 | COCC1=NN(c2ccc(C(=O)O)cc2)C(=O)/C1=C\c1ccc(CO)o1 [Compound 328] | 
40 | < 10 | < 40 | CCCCC1=NN(c2ccc(C(=O)O)cc2)C(=O)/C1=C\c1ccc2[nH]ccc2c1 [Compound 474] | 
41 | 10 to 20 | < 40 | O=C(O)c1ccc(N2N=C(Cc3ccccc3)/C(=C/c3ccc(-n4ccnc4)cc3)C2=O)cc1 [Compound 271] | 
42 | 10 to 20 | < 10 | O=C(O)c1ccc(N2N=C(Cc3ccccc3)/C(=C/c3ccc4c(c3)OCCO4)C2=O)cc1 [Compound 272] | 
43 | 10 to 20 | < 10 | CCCCC1=NN(c2ccc(C(=O)O)cc2)C(=O)/C1=C\c1ccc(N2CCCC2)cc1 [Compound 301] | 
44 | 10 to 20 | 10 to 20 | O=C(O)c1cccc(N2N=C(c3ccoc3)/C(=C/c3ccc(N4CCCC4)cc3)C2=O)c1 [Compound 478] | 
45 | < 10 | 10 to 20 | CCCCC1=NN(c2ccc(C(=O)O)cc2)C(=O)/C1=C\c1ccc(-n2ccnc2)cc1 [Compound 302] | 
46 | 10 to 20 | < 40 | CC1=NN(c2ccccc2)C(=O)/C1=C\c1ccc(N2CCNCC2)cc1 [Compound 200] | 
47 | < 10 | < 10 | COCC1=NN(c2ccc(C(=O)O)cc2)C(=O)/C1=C\c1ccc(N2CCN(C(=O)OC)CC2)cc1 [Compound 235] | 
48 | < 10 | < 40 | COc1cc(/C=C2\C(=O)N(c3ccc(C(=O)O)cc3)N=C2C2CC2)ccc1O [Compound 312] | 
49 | < 10 | 10 to 20 | COc1ccc(C2=NN(c3ccc(C(=O)O)cc3)C(=O)/C2=C\c2ccc(N3CCCC3)cc2)cc1OC [Compound 281] | 
50 | 10 to 20 | < 40 | CN1CCN(c2ccc(/C=C3\C(=O)N(c4ccc(C(=O)O)cc4)N=C3Cc3ccccc3)cc2)CC1 [Compound 274] | 
51 | < 10 | < 40 | CC1=NN(c2ccc(C(=O)O)cc2)C(=O)/C1=C\c1ccc2c(ccn2C(=O)c2ccccc2)c1 [Compound 528] | 
52 | < 10 | 10 to 20 | COC(=O)N1CCN(c2ccc(/C=C3\C(=O)N(c4ccc(C(=O)O)cc4)N=C3Cc3ccccc3)cc2)CC1 [Compound 266] | 
53 | < 10 | < 40 | CCCCC1=NN(c2ccc(C(=O)O)cc2)C(=O)/C1=C\c1ccc(N2CCN(c3ccccc3)CC2)cc1 [Compound 434] | 
54 | 10 to 20 | 10 to 20 | CCCCC1=NN(c2cccc(C(=O)O)c2)C(=O)/C1=C\c1ccc(N2CCCC2)cc1 [Compound 479] | 
